# Measurements taken from ChEMBL document CHEMBL3885881, “DrugMatrix”.
# Species: Rattus norvegicus
# Experiment: DrugMatrix - Regimen: Daily Repeat
# Type: toxicity, organism-based, Sprague-Dawley
# Parameters: regimen Daily Repeat, gender Male, age 6-8 weeks
# Details: in vivo, po, route oral GAVAGE, vehicle .5 % CMC; for ABSOLUTE BASOPHIL / ABSOLUTE EOSINOPHIL / ABSOLUTE LYMPHOCYTE / ABSOLUTE MONOCYTE / ABSOLUTE SEGMENTED NEUTROPHIL / BASOPHIL / EOSINOPHIL / ERYTHROCYTE COUNT / HEMATOCRIT / HEMOGLOBIN / LEUKOCYTE COUNT / LYMPHOCYTE / MEAN CORPUSCULAR HEMOGLOBIN / MEAN CORPUSCULAR HEMOGLOBIN CONCENTRATION / MEAN CORPUSCULAR VOLUME / MONOCYTE / NEUTROPHIL / NUCLEATED RED BLOOD CELLS / PLATELET COUNT: tissue Blood; for ALANINE AMINOTRANSFERASE / ALBUMIN / ALKALINE PHOSPHATASE / ASPARTATE AMINOTRANSFERASE / BLOOD UREA NITROGEN / CARBON DIOXIDE / CHLORIDE / CHOLESTEROL / CREATINE PHOSPHOKINASE / CREATININE / GLUCOSE / LACTATE DEHYDROGENASE / LIPASE / PHOSPHORUS / POTASSIUM / SODIUM / TOTAL BILIRUBIN / TOTAL PROTEIN / URIC ACID: tissue Plasma
# [1] = 0 mg/kg, 72 h, dose level Control, time 3 day
# [2] = 0 mg/kg, 120 h, dose level Control, time 5 day
# [3] = 19 mg/kg, 72 h, dose level High, time 3 day
compound,measurement,setting,value
NCC(CC(=O)O)c1ccc(Cl)cc1 (centres undefined) [BACLOFEN],ABSOLUTE BASOPHIL,[1],0 CELLS/uL
same,ABSOLUTE EOSINOPHIL,[1],171.33 CELLS/uL
same,ABSOLUTE LYMPHOCYTE,[1],13776.5 CELLS/uL
same,ABSOLUTE MONOCYTE,[1],180.83 CELLS/uL
same,ABSOLUTE SEGMENTED NEUTROPHIL,[1],1121.33 CELLS/uL
same,BASOPHIL,[1],0%
same,EOSINOPHIL,[1],1%
same,ERYTHROCYTE COUNT,[1],5.56 x10E6/uL
same,HEMATOCRIT,[1],34.75%
same,HEMOGLOBIN,[1],13.68 G/DL
same,LEUKOCYTE COUNT,[1],15.25 x10E3/uL
same,LYMPHOCYTE,[1],90.17%
same,MEAN CORPUSCULAR HEMOGLOBIN,[1],24.6 pg
same,MEAN CORPUSCULAR HEMOGLOBIN CONCENTRATION,[1],39.4 G/DL
same,MEAN CORPUSCULAR VOLUME,[1],62.48 fL
same,MONOCYTE,[1],1.17%
same,NEUTROPHIL,[1],7.67%
same,NUCLEATED RED BLOOD CELLS,[1],0 /100WBC
same,PLATELET COUNT,[1],1342 x10E3/uL
same,ALANINE AMINOTRANSFERASE,[1],49.67 u/L
same,ALBUMIN,[1],4.15 G/DL
same,ALKALINE PHOSPHATASE,[1],346.83 u/L
same,ASPARTATE AMINOTRANSFERASE,[1],108.17 u/L
same,BLOOD UREA NITROGEN,[1],17.33 mg/dL
same,CARBON DIOXIDE,[1],25 mmol/L
same,CHLORIDE,[1],100.83 MEQ/L
same,CHOLESTEROL,[1],66.83 mg/dL
same,CREATINE PHOSPHOKINASE,[1],788 u/L
same,CREATININE,[1],0.18 mg/dL
same,GLUCOSE,[1],151.67 mg/dL
same,LACTATE DEHYDROGENASE,[1],982.5 u/L
same,LIPASE,[1],10.33 u/L
same,PHOSPHORUS,[1],11.23 mg/dL
same,POTASSIUM,[1],6.37 MEQ/L
same,SODIUM,[1],141.02 MEQ/L
same,TOTAL BILIRUBIN,[1],0.18 mg/dL
same,TOTAL PROTEIN,[1],5.9 G/DL
same,URIC ACID,[1],1.8 mg/dL
same,ABSOLUTE BASOPHIL,[2],0 CELLS/uL
same,ABSOLUTE EOSINOPHIL,[2],69 CELLS/uL
same,ABSOLUTE LYMPHOCYTE,[2],13632.83 CELLS/uL
same,ABSOLUTE MONOCYTE,[2],139.83 CELLS/uL
same,ABSOLUTE SEGMENTED NEUTROPHIL,[2],1225 CELLS/uL
same,BASOPHIL,[2],0%
same,EOSINOPHIL,[2],0.33%
same,ERYTHROCYTE COUNT,[2],5.52 x10E6/uL
same,HEMATOCRIT,[2],33.98%
same,HEMOGLOBIN,[2],13.22 G/DL
same,LEUKOCYTE COUNT,[2],15.07 x10E3/uL
same,LYMPHOCYTE,[2],90.83%
same,MEAN CORPUSCULAR HEMOGLOBIN,[2],23.95 pg
same,MEAN CORPUSCULAR HEMOGLOBIN CONCENTRATION,[2],38.9 G/DL
same,MEAN CORPUSCULAR VOLUME,[2],61.53 fL
same,MONOCYTE,[2],0.83%
same,NEUTROPHIL,[2],8%
same,NUCLEATED RED BLOOD CELLS,[2],0 /100WBC
same,PLATELET COUNT,[2],1196 x10E3/uL
same,ALANINE AMINOTRANSFERASE,[2],49.17 u/L
same,ALBUMIN,[2],4.2 G/DL
same,ALKALINE PHOSPHATASE,[2],352.33 u/L
same,ASPARTATE AMINOTRANSFERASE,[2],89.67 u/L
same,BLOOD UREA NITROGEN,[2],18 mg/dL
same,CARBON DIOXIDE,[2],27.67 mmol/L
same,CHLORIDE,[2],101 MEQ/L
same,CHOLESTEROL,[2],72.83 mg/dL
same,CREATINE PHOSPHOKINASE,[2],417.5 u/L
same,CREATININE,[2],0.18 mg/dL
same,GLUCOSE,[2],150.5 mg/dL
same,LACTATE DEHYDROGENASE,[2],517.33 u/L
same,LIPASE,[2],9 u/L
same,PHOSPHORUS,[2],11.87 mg/dL
same,POTASSIUM,[2],6.57 MEQ/L
same,SODIUM,[2],143.62 MEQ/L
same,TOTAL BILIRUBIN,[2],0.2 mg/dL
same,TOTAL PROTEIN,[2],6.08 G/DL
same,URIC ACID,[2],1.45 mg/dL
same,ABSOLUTE BASOPHIL,[3],0 CELLS/uL
same,ABSOLUTE EOSINOPHIL,[3],0 CELLS/uL
same,ABSOLUTE LYMPHOCYTE,[3],12161.33 CELLS/uL
same,ABSOLUTE MONOCYTE,[3],182.33 CELLS/uL
same,ABSOLUTE SEGMENTED NEUTROPHIL,[3],1123 CELLS/uL
same,BASOPHIL,[3],0%
same,EOSINOPHIL,[3],0%
same,ERYTHROCYTE COUNT,[3],5.27 x10E6/uL
same,HEMATOCRIT,[3],34.17%
same,HEMOGLOBIN,[3],13.33 G/DL
same,LEUKOCYTE COUNT,[3],13.47 x10E3/uL
same,LYMPHOCYTE,[3],90.33%
same,MEAN CORPUSCULAR HEMOGLOBIN,[3],25.37 pg
same,MEAN CORPUSCULAR HEMOGLOBIN CONCENTRATION,[3],39.03 G/DL
same,MEAN CORPUSCULAR VOLUME,[3],64.97 fL
same,MONOCYTE,[3],1.33%
same,NEUTROPHIL,[3],8.33%
same,NUCLEATED RED BLOOD CELLS,[3],0 /100WBC
same,PLATELET COUNT,[3],1177 x10E3/uL
same,ALANINE AMINOTRANSFERASE,[3],54.33 u/L
same,ALBUMIN,[3],4.03 G/DL
same,ALKALINE PHOSPHATASE,[3],373.67 u/L
same,ASPARTATE AMINOTRANSFERASE,[3],85.33 u/L
same,BLOOD UREA NITROGEN,[3],15.33 mg/dL
same,CARBON DIOXIDE,[3],26.33 mmol/L
same,CHLORIDE,[3],101.67 MEQ/L
same,CHOLESTEROL,[3],64 mg/dL
same,CREATINE PHOSPHOKINASE,[3],394.67 u/L
same,CREATININE,[3],0.16 mg/dL
same,GLUCOSE,[3],125 mg/dL
same,LACTATE DEHYDROGENASE,[3],438.33 u/L
same,LIPASE,[3],10 u/L
same,PHOSPHORUS,[3],11.93 mg/dL
same,POTASSIUM,[3],7.01 MEQ/L
same,SODIUM,[3],142.53 MEQ/L
same,TOTAL BILIRUBIN,[3],0.2 mg/dL
same,TOTAL PROTEIN,[3],5.53 G/DL
same,URIC ACID,[3],1.57 mg/dL
